PubChem BioAssay (NCI)
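Briefly, cells in 96-well plates were exposed to five compound concentrations for 48 h, and endpoints were estimated by linear interpolation. TGI: total growth inhibition.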

Columns and labels:
Experiment in all cases: NCI tumour cell line growth inhibition, 48 h
[1] = test system: KM20L2 colon
[2] = test system: LXFL 529 NSCLC
[3] = test system: DLD-1 colon
[4] = test system: DMS 114 small cell lung
[5] = test system: HOP-18 NSCLC
[6] = test system: SNB-78 CNS
[7] = test system: RXF-631 renal
[8] = test system: XF 498 CNS
[9] = test system: P388 leukemia
[10] = test system: SN12K1 renal

| Structure (SMILES) | TGI [1] | TGI [2] | TGI [3] | TGI [4] | TGI [5] | TGI [6] | TGI [7] | TGI [8] | TGI [9] | TGI [10] |
| --- | --- | --- | --- | --- | --- | --- | --- | --- | --- | --- |
| Cc1ccc2c(c1)c(=O)c1c(NCCN(C)C)ccc3nnn2c31 | 16 µM | 20.1 µM | 20 µM | 18.5 µM | 50 µM | 24.2 µM | – | – | – | – |
| O=c1[nH]c(=O)n(C2CC(O)C(CO)O2)cc1C#Cc1ccc(C(F)(F)F)cc1 (stereo not drawn) | > 100 µM | > 100 µM | > 100 µM | > 100 µM | > 100 µM | – | > 100 µM | > 100 µM | – | – |
| COc1cc(N=Nc2cccc(S(=O)(=O)O)c2)c(C)cc1N=Nc1ccc(/C=C/c2ccc(N=[N+]([O-])c3ccc(/C=C/c4ccc(N=Nc5cc(C)c(N=Nc6cccc(S(=O)(=O)O)c6)cc5OC)cc4)c(S(=O)(=O)O)c3)cc2S(=O)(=O)O)cc1 | > 100 µM | – | > 100 µM | > 100 µM | > 100 µM | – | – | > 100 µM | > 100 µM | > 100 µM |
| NC1=NS(=O)(=O)N=C(N)C1=Cc1ccc([N+](=O)[O-])o1 | 31.3 µM | 30.8 µM | 33.7 µM | 31.9 µM | 31.8 µM | 47.9 µM | – | 32.7 µM | – | – |
| C/C(=N\N(C)C)C(CN(C)C)C(c1ccccc1)c1c(O)c2ccccc2oc1=O (stereo not drawn) | > 100 µM | > 100 µM | > 100 µM | > 100 µM | – | > 100 µM | – | > 100 µM | – | – |
| CC(=O)O[C@]12CCCCCCC1C1(O)C(O)CCC[C@H]12 (stereo partly drawn) | > 100 µM | > 100 µM | – | > 100 µM | > 100 µM | > 100 µM | – | > 100 µM | – | – |
| CC1=NN(C(=O)CC(=O)Nc2cccc(Cl)c2)C(=O)C1N=Nc1ccc(S(N)(=O)=O)cc1 (stereo not drawn) | > 100 µM | > 100 µM | > 100 µM | > 100 µM | > 100 µM | > 100 µM | – | > 100 µM | – | – |
| O=C(c1cccs1)N(C(=S)N1CCN(c2ccccc2)CC1)c1ccccc1 | > 100 µM | > 100 µM | > 100 µM | > 100 µM | > 100 µM | > 100 µM | – | – | – | – |
| c1ccc(C2=NN3CN(N2)c2ccccc2OCCCOc2ccccc23)cc1 | > 100 µM | > 100 µM | – | > 100 µM | – | > 100 µM | – | > 100 µM | – | – |
| COC(=O)C12CC(C3CC31)C1CC12 (stereo not drawn) | > 100 µM | > 100 µM | > 100 µM | > 100 µM | > 100 µM | – | > 100 µM | – | – | – |
